Experimental data taken from PubChem BioAssay AID1259407 (Chemical Carcinogenesis Research Information System (CCRIS), 2018).
Activity calls are given as the source filed them. How the calls were made is not given here.

Test system: CCRIS mutagenicity, Ames/micronucleus/aberration tests
Experiment: CCRIS mutagenicity studies
[1] = Test System: AMES SALMONELLA TYPHIMURIUM, Strain/Indicator: TA97, Metabolic Activation: NONE, Method: PREINCUBATION
[2] = Test System: AMES SALMONELLA TYPHIMURIUM, Strain/Indicator: TA98, Metabolic Activation: NONE, Method: PREINCUBATION
[3] = Test System: AMES SALMONELLA TYPHIMURIUM, Strain/Indicator: TA100, Metabolic Activation: NONE, Method: PREINCUBATION

Measured: mutagenic call

O=C1CN(CCN2CC(=O)N(CN3CCOCC3)C(=O)C2)CC(=O)N1CN1CCOCC1
inactive: [1] inactive; negative | Test System: AMES SALMONELLA TYPHIMURIUM, Strain/Indicator: TA97, Metabolic Activation: S-9, Method: PREINCUBATION inactive; negative | Test System: AMES SALMONELLA TYPHIMURIUM, Strain/Indicator: TA98, Metabolic Activation: S-9, Method: PREINCUBATION inactive; negative | [3] inactive; negative | Test System: AMES SALMONELLA TYPHIMURIUM, Strain/Indicator: TA100, Metabolic Activation: S-9, Method: PREINCUBATION inactive; negative | Test System: AMES SALMONELLA TYPHIMURIUM, Strain/Indicator: TA102, Metabolic Activation: S-9, Method: PREINCUBATION inactive; negative
active: [2] active; positive | Test System: AMES SALMONELLA TYPHIMURIUM, Strain/Indicator: TA102, Metabolic Activation: NONE, Method: PREINCUBATION active; positive

Nc1cc2cccc3ccc4cccc1c4c32
inactive: Test System: AMES SALMONELLA TYPHIMURIUM, Strain/Indicator: TA1535, Metabolic Activation: RAT, LIVER, S-9, AROCLOR 1254 (2%), Method: STANDARD PLATE inactive; negative
active: Test System: AMES SALMONELLA TYPHIMURIUM, Strain/Indicator: TA98, Metabolic Activation: RAT, LIVER, S-9, AROCLOR 1254 (2 OR 4%), Method: STANDARD PLATE active; positive | Test System: AMES SALMONELLA TYPHIMURIUM, Strain/Indicator: TA100, Metabolic Activation: RAT, LIVER, S-9, AROCLOR 1254 (2%), Method: STANDARD PLATE active; positive | Test System: AMES SALMONELLA TYPHIMURIUM, Strain/Indicator: TA1537, Metabolic Activation: RAT, LIVER, S-9, AROCLOR 1254 (2%), Method: STANDARD PLATE active; positive

Clc1cccc(-c2ccc(Cl)c(Cl)c2Cl)c1Cl
inactive: Test System: AMES SALMONELLA TYPHIMURIUM, Strain/Indicator: TA97, Metabolic Activation: HAMSTER, LIVER, S-9, AROCLOR 1254 (10 OR 30%), Method: PREINCUBATION inactive; negative | [1] inactive; negative | Test System: AMES SALMONELLA TYPHIMURIUM, Strain/Indicator: TA97, Metabolic Activation: RAT, LIVER, S-9, AROCLOR 1254 (10 OR 30%), Method: PREINCUBATION inactive; negative | Test System: AMES SALMONELLA TYPHIMURIUM, Strain/Indicator: TA98, Metabolic Activation: HAMSTER, LIVER, S-9, AROCLOR 1254 (10 OR 30%), Method: PREINCUBATION inactive; negative | [2] inactive; negative | Test System: AMES SALMONELLA TYPHIMURIUM, Strain/Indicator: TA98, Metabolic Activation: RAT, LIVER, S-9, AROCLOR 1254 (10 OR 30%), Method: PREINCUBATION inactive; negative | Test System: AMES SALMONELLA TYPHIMURIUM, Strain/Indicator: TA100, Metabolic Activation: HAMSTER, LIVER, S-9, AROCLOR 1254 (10 OR 30%), Method: PREINCUBATION inactive; negative | [3] inactive; negative | Test System: AMES SALMONELLA TYPHIMURIUM, Strain/Indicator: TA100, Metabolic Activation: RAT, LIVER, S-9, AROCLOR 1254 (10 OR 30%), Method: PREINCUBATION inactive; negative | Test System: AMES SALMONELLA TYPHIMURIUM, Strain/Indicator: TA1535, Metabolic Activation: HAMSTER, LIVER, S-9, AROCLOR 1254 (10 OR 30%), Method: PREINCUBATION inactive; negative | Test System: AMES SALMONELLA TYPHIMURIUM, Strain/Indicator: TA1535, Metabolic Activation: NONE, Method: PREINCUBATION inactive; negative | Test System: AMES SALMONELLA TYPHIMURIUM, Strain/Indicator: TA1535, Metabolic Activation: RAT, LIVER, S-9, AROCLOR 1254 (10 OR 30%), Method: PREINCUBATION inactive; negative | Test System: AMES SALMONELLA TYPHIMURIUM, Strain/Indicator: TA1537, Metabolic Activation: HAMSTER, LIVER, S-9, AROCLOR 1254 (10 OR 30%), Method: PREINCUBATION inactive; negative | Test System: AMES SALMONELLA TYPHIMURIUM, Strain/Indicator: TA1537, Metabolic Activation: NONE, Method: PREINCUBATION inactive; negative | Test System: AMES SALMONELLA TYPHIMURIUM, Strain/Indicator: TA1537, Metabolic Activation: RAT, LIVER, S-9, AROCLOR 1254 (10 OR 30%), Method: PREINCUBATION inactive; negative | Test System: E. COLI, Strain/Indicator: WP2 UVRA, Metabolic Activation: HAMSTER, LIVER, S-9, AROCLOR 1254, Method: STANDARD PLATE inactive; negative | Test System: E. COLI, Strain/Indicator: WP2 UVRA, Metabolic Activation: HAMSTER, LIVER, S-9, Method: STANDARD PLATE inactive; negative | Test System: E. COLI, Strain/Indicator: WP2 UVRA, Metabolic Activation: MOUSE, LIVER, S-9, AROCLOR 1254, Method: STANDARD PLATE inactive; negative | Test System: E. COLI, Strain/Indicator: WP2 UVRA, Metabolic Activation: MOUSE, LIVER, S-9, Method: STANDARD PLATE inactive; negative | Test System: E. COLI, Strain/Indicator: WP2 UVRA, Metabolic Activation: NONE, Method: STANDARD PLATE inactive; negative | Test System: E. COLI, Strain/Indicator: WP2 UVRA, Metabolic Activation: RAT, LIVER, S-9, AROCLOR 1254, Method: STANDARD PLATE inactive; negative | Test System: E. COLI, Strain/Indicator: WP2 UVRA, Metabolic Activation: RAT, LIVER, S-9, Method: STANDARD PLATE inactive; negative
